According to patent EP4674849A1, “FLUORESCENT DYE FOR DETECTING NUCLEIC ACID” (Keio University, priority 2023, dated 2024):

Target: deoxyribonucleic acid (derived from salmon sperm) with a length of 500 to 1000 bp
Assay: DNA binding assay of fluorescent dyes (fluorescence titration, fit to McGhee-von Hippel equation)
Conditions: TE buffer (pH: 8.0); dye 200, 400, 800 nM; DNA 0.5-12 µM; excitation 475 nm, emission 520 nm; read-out: Dissociation constant Kd

Kd: 1000 ± 90 nM
SMILES: CCCN(CCCN(C)C)c1cc(/C=C2/Sc3ccccc3N2C)c2ccccc2[n+]1-c1ccccc1
